Reference: patent US10208037B2, “Toll-like receptor-7 and -8 modulatory 1H imidazoquinoline derived compounds” (The University of Kansas, priority 2011, dated 2019)
Where two headings read alike, the source gives them in different places.

Target: T1, TLR7 (Homo sapiens, UniProt Q9NYK1)
T1 construct: expressed in transfected cells; host or cells: HEK293 (HEK-Blue-7 cells)
T1 sequence (Q9NYK1 27-1049): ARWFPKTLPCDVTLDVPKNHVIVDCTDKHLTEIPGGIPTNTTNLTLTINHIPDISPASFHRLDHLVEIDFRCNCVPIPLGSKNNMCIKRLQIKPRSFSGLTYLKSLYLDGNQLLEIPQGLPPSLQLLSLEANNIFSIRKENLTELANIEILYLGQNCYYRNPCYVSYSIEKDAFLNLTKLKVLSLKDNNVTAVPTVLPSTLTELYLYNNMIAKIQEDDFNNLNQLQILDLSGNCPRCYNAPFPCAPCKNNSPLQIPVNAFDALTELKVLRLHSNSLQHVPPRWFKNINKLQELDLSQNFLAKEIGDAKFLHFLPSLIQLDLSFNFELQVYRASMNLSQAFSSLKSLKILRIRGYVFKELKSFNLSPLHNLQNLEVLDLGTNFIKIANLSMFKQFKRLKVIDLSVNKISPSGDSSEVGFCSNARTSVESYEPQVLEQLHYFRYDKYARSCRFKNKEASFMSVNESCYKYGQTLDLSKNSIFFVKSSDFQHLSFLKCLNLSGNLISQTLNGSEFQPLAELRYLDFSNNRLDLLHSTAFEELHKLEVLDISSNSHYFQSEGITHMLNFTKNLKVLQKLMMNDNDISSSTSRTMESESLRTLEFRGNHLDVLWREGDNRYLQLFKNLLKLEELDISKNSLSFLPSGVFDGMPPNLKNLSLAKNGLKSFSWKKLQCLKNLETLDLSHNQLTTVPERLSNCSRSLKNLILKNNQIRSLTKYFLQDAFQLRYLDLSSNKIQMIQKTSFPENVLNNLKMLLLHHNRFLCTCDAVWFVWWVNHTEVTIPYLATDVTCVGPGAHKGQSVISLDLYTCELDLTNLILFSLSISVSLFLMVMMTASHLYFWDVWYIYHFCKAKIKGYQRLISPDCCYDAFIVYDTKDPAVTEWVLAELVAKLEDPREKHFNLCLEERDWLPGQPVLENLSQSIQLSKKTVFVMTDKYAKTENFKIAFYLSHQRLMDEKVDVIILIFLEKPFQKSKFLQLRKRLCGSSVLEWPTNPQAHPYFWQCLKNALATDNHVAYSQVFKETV
Assay: TLR7 reporter gene assay (NF-κB induction, HEK-Blue-7 cells), agonism
Format: cell-based
Text: NF-κB induction: The induction of NF-κB was quantified using HEK-Blue-7 cells and HEK-Blue-8 cells as previously described by us.^8,24 HEK293 cells were stably transfected with human TLR7 (or human TLR8), MD2, and secreted alkaline phosphatase (sAP), and were maintained in HEK-Blue™ Selection medium containing zeocin and normocin. Stable expression of secreted alkaline phosphatase (sAP) under control of NF-κB/AP-1 promoters is inducible by the TLR7 (or TLR8) agonists, and extracellular sAP in the supernatant is proportional to NF-κB induction. HEK-Blue cells were incubated at a density of […] in a volume of 80 μL/well, in 384-well, flat-bottomed, cell culture-treated microtiter plates until confluency was achieved, and subsequently graded concentrations of stimuli. sAP was assayed spectrophotometrically using an alkaline phosphatase-specific chromogen (present in HEK-detection medium as supplied by the vendor) at 620 nm.
The induction of NF-κB was quantified using HEK-Blue-3, HEK-Blue-7 and HEK-Blue-8 cells as previously described by us.^8,24,51 HEK293 cells were stably transfected with human TLR3 (or human TLR7 or human TLR8), MD2, and secreted alkaline phosphatase (sAP), and were maintained in HEK-Blue™ Selection medium containing zeocin and normocin. Stable expression of secreted alkaline phosphatase (sAP) under control of NF-κB/AP-1 promoters is inducible by the TLR3 (or TLR7 or TLR8) agonists, and extracellular sAP in the supernatant is proportional to NF-κB induction. HEK-Blue cells were incubated at a density of ˜10^5 cells/ml in a volume of 80 μl/well, in 384-well, flat-bottomed, cell culture-treated microtiter plates until confluency was achieved, and subsequently graded concentrations of stimuli. sAP was assayed spectrophotometrically using an alkaline phosphatase-specific chromogen (present in HEK-detection medium as supplied by the vendor) at 620 nm.

[1] = Table 1, ND = not detected, read-out: TLR7 Agonism
[2] = read-out: EC50 (agonistic activity)

| SMILES | EC50 [1] [nM] | also measured |
| --- | --- | --- |
| CCCCc1nc2c(N)nc3ccccc3c2n1Cc1ccc(CNC(=O)CCCCCCC(=O)NCc2ccc(Cn3c(CCCC)nc4c(N)nc5ccccc5c43)cc2)cc1 [Compound 52b, N^1,N-bis(4-((4-amino-2-butyl-1H-imidazo[4,5-c]quinolin-1-yl)methyl)benzyl)octanediamide] | 240 | – |
| CCCCc1nc2c(N)nc3ccccc3c2n1Cc1cccc2ccccc12 [Compound 6a] | – | TLR7-agonistic activity (in words): inactive |
| CCCCc1nc2c(N)nc3ccccc3c2n1Cc1ccc(CNC(=O)CCCCC(=O)NCc2ccc(Cn3c(CCCC)nc4c(N)nc5ccccc5c43)cc2)cc1 [Compound 52a, N^1,N^6-bis(4-((4-amino-2-butyl-1H-imidazo[4,5-c]quinolin-1-yl)methyl)benzyl)adipamide] | 110 | – |
| CCCCc1nc2c(NCCCCCCCCNc3nc4ccccc4c4c3nc(CCCC)n4Cc3ccccc3)nc3ccccc3c2n1Cc1ccccc1 [Compound 51b, N^1,N-bis(1-benzyl-2-butyl-1H-imidazo[4,5-c]quinolin-4-yl)octane-1,8-diamine] | 560 | – |
| CCCCc1nc2c(N)nc3ccc(NC(=O)CCCCC(=O)Nc4ccc5nc(N)c6nc(CCCC)n(Cc7ccc(CN)cc7)c6c5c4)cc3c2n1Cc1ccc(CN)cc1 [Compound 55a, N^1,N^6-bis(4-amino-1-(4-(aminomethyl)benzyl)-2-butyl-1H-imidazo[4,5-c]quinolin-8-yl) adipamide] | 7240 | – |
| CCCCc1nc2c(N)nc3ccccc3c2n1Cc1ccc(CNC(=S)Nc2ccc(-c3c4ccc(=[N+](CC)CC)cc-4oc4cc(N(CC)CC)ccc34)c(C(=O)O)c2)cc1 [Compound 27, N-(9-(4-(3-(4-((4-amino-2-butyl-1H-imidazo[4,5-c]quinolin-1-yl)methyl)benzyl)thioureido)-2-carboxyphenyl)-6-(diethylamino)-3H-xanthen-3-ylidene)-N-ethylethanaminium] | – | TLR7-agonistic activity (in words): retain TLR7 agonistic activity |
| CCCCc1nc2c(N)nc3ccc(N)cc3c2n1Cc1ccc(CN)cc1 [Compound 54a, 1-(4-(aminomethyl)benzyl)-2-butyl-1H-imidazo[4,5-c]quinoline-4,8-diamine] | 450 | – |
| CCCCc1nc2c(NCCCCNc3nc4ccccc4c4c3nc(CCCC)n4Cc3ccccc3)nc3ccccc3c2n1Cc1ccccc1 [Compound 51a, N^1,N^4-bis(1-benzyl-2-butyl-1H-imidazo[4,5-c]quinolin-4-yl)butane-1,4-diamine] | 2050 | – |
| CCCCc1nc2c(N)nc3ccccc3c2n1Cc1ccc(CNC(=O)CCN2C(=O)CC(SC[C@@H](NC(=O)CC[C@@H](N)C(=O)OC)C(=O)NCC(=O)OC)C2=O)cc1 (stereo partly drawn) [Compound 30b, (2R)-methyl 2-amino-5-((2S)-3-(1-(3-(4-((4-amino-2-butyl-1H-imidazo[4,5-c]quinolin-1-yl)methyl)benzylamino)-3-oxopropyl)-2,5-dioxopyrrolidin-3-ylthio)-1-(2-methoxy-2-oxoethylamino)-1-oxopropan-2-ylamino)-5-oxopentanoate] | – | EC50 [2]: 2200 nM |
| CCCCc1nc2c(N)nc3ccccc3c2n1Cc1ccc(CNC(=S)NCC(=O)NCC(=O)NCC(=O)OC)cc1 [Compound 29, Methyl 1-(4-((4-amino-2-butyl-1H-imidazo[4,5-c]quinolin-1-yl)methyl)phenyl)-6,9-dioxo-3-thioxo-2,4,7,10-tetraazadodecan-12-oate] | – | EC50 [2]: 269 nM |
| CCCCc1nc2c(NCCCCCCCCCCNc3nc4ccccc4c4c3nc(CCCC)n4Cc3ccccc3)nc3ccccc3c2n1Cc1ccccc1 [Compound 51c, N^1,N^10-bis(1-benzyl-2-butyl-1H-imidazo[4,5-c]quinolin-4-yl)decane-1,10-diamine] | 3000 | – |
| CCCCc1nc2c(NCCCCCCCCCCCCNc3nc4ccccc4c4c3nc(CCCC)n4Cc3ccccc3)nc3ccccc3c2n1Cc1ccccc1 [Compound 51d, N^1,N^12-bis(1-benzyl-2-butyl-1H-imidazo[4,5-c]quinolin-4-yl)dodecane-1,12-diamine] | 1420 | – |
| CCCCc1nc2c(N)nc3ccccc3c2n1Cc1ccc(CNC(=S)Nc2cccc(-c3c4ccc(=O)cc-4oc4cc(O)ccc34)c2C(=O)O)cc1 [Compound 26, 2-(3-(4-((4-Amino-2-butyl-1H-imidazo [4,5-c]quinolin-1-yl)methyl)benzyl)thioureido)-6-(6-hydroxy-3-oxo-3H-xanthen-9-yl)benzoic Acid] | – | TLR7-agonistic activity (in words): retain TLR7 agonistic activity |
| CCCCc1nc2c(N)nc3ccc(NC(=O)CCCCCCC(=O)Nc4ccc5nc(N)c6nc(CCCC)n(Cc7ccc(CN)cc7)c6c5c4)cc3c2n1Cc1ccc(CN)cc1 [Compound 55b, N^1,N^8-bis(4-amino-1-(4-(aminomethyl)benzyl)-2-butyl-1H-imidazo[4,5-c]quinolin-8-yl)octanediamide] | 4020 | – |
| CCCCc1nc2c(N)nc3ccccc3c2n1Cc1ccc(-c2ccccc2)cc1 [Compound 6b, 1-(Biphenyl-4-ylmethyl)-2-butyl-1H-imidazo[4,5-c]quinolin-4-amine] | – | EC50 [2]: 396 nM |
| CCCCc1nc2c(N)nc3ccc([N+](=O)[O-])cc3c2n1Cc1ccc(CN)cc1 [Compound 53a, 1-(4-(aminomethyl)benzyl)-2-butyl-8-nitro-1H-imidazo[4,5-c]quinolin-4-amine] | 560 | – |
